Experiments:
[1] = test system: psychomotor seizure induced by 6 Hz stimulation; test: Minimal clonic seizure (6 Hz) psychomotor seizure test; conditions: Time to Peak Effect (Table 54), CF1 mice, intraperitoneal, methylcellulose
U251 cells = test: Orthotopic mouse model of glioblastoma multiforme, U251 cells; assay type: in vivo, female athymic nu/nu mice
Procedure: All mice were injected intraperitoneally.
Survival between groups was compared using a Kaplan-Meier analysis and long-rank Mantel-Cox test or The Gehan-Breslow-Wilcoxon test. P values <0.05 defined statistical significance.

[2] = Pharmacokinetic food-effect study, single 20 mg/kg dose, healthy subjects (Example 17); conditions: for AUC / AUC(0-t) / AUC(0-inf) / Cmax / Tmax: human, in vivo, po, 20 mg/kg; for AUC: AUC0, cannabidiol; for Tmax: median (min, max)
Procedure: An open label, randomized, single-dose, two-period, two-way crossover food-effect study was conducted on healthy subjects. […] Twenty-four (24) subjects were enrolled in the study and each were subjected to the fasted and fed treatment arms in separate periods followed by a 7-day wash-out period. For pharmacokinetic analysis, nominal time and default lambda-z selections were used. All below quantifiable limit values were set to zero and all subjects were included in the analysis.
Data from 13 subjects from the fasted treatment and 24 subject from the fed treatment were included in the pharmacokinetic and statistical analyses.

[3] = cannabidiol, single 20 mg/kg oral dose of cannabidiol solution, fasted, mean
[4] = cannabidiol, single 20 mg/kg oral dose of cannabidiol solution, fed, mean

C=C(C)[C@@H]1CCC(C)=C[C@H]1c1c(O)cc(CCCCC)cc1O [cannabidiol, (−)-trans-2-p-mentha-1,8-dien-3-yl-5-pentylresorcinol]
6 Hz N/F ([1]; 300 mg/kg, 24 h): 0/8 | 6 Hz N/F ([1]; 500 mg/kg, 0.25 h): 1/8 | 6 Hz N/F ([1]; 500 mg/kg, 0.5 h): 0/8 | 6 Hz N/F ([1]; 500 mg/kg, 1 h): 0/8 | 6 Hz N/F ([1]; 500 mg/kg, 2 h): 0/8 | 6 Hz N/F ([1]; 500 mg/kg, 4 h): 0/8 | 6 Hz N/F ([1]; 500 mg/kg, 6 h): 0/8 | 6 Hz N/F ([1]; 500 mg/kg, 24 h): 2/8 | effect on antitumor activity of temozolomide (in words) (U251 cells; 15 mg/kg cannabidiol with temozolomide 1.5 mg/kg): enhanced the antitumor activity of temozolomide | survival (in words) (U251 cells; vehicle outlier included): did not increase survival | AUCextrap [2, 3]: 3.57% | Clast [2, 3]: 0.867 ng/mL | Tlast [2, 3]: 120.01 h | λz [2, 3]: 0.0257 h⁻¹ | AUCextrap [2, 4]: 3.84% | Clast [2, 4]: 6.36 ng/mL | Tlast [2, 4]: 120.00 h | λz [2, 4]: 0.0165 h⁻¹ | AUC ([2]; single 20 mg/kg oral, fasted, mean ± SD): 0.325 ± 1.17 ng·h/mL | AUC ([2]; single 20 mg/kg oral, fed, mean ± SD): 0.229 ± 0.636 ng·h/mL | AUC(0-t) ([2]; AUC0-0.25, cannabidiol, single 20 mg/kg oral, fasted, mean ± SD): 0.363 ± 1.31 ng·h/mL | AUC(0-t) ([2]; AUC0-0.25, cannabidiol, single 20 mg/kg oral, fed, mean ± SD): 0.498 ± 0.874 ng·h/mL | AUC(0-t) ([2]; AUC0-0.5, cannabidiol, single 20 mg/kg oral, fasted, mean ± SD): 0.584 ± 1.33 ng·h/mL | AUC(0-t) ([2]; AUC0-0.5, cannabidiol, single 20 mg/kg oral, fed, mean ± SD): 2.45 ± 3.38 ng·h/mL | AUC(0-t) ([2]; AUC0-0.75, cannabidiol, single 20 mg/kg oral, fasted, mean ± SD): 1.25 ± 1.34 ng·h/mL | AUC(0-t) ([2]; AUC0-0.75, cannabidiol, single 20 mg/kg oral, fed, mean ± SD): 7.48 ± 11.2 ng·h/mL | AUC(0-t) ([2]; AUC0-1, cannabidiol, single 20 mg/kg oral, fasted, mean ± SD): 1.93 ± 1.62 ng·h/mL | AUC(0-t) ([2]; AUC0-1, cannabidiol, single 20 mg/kg oral, fed, mean ± SD): 21.8 ± 40 ng·h/mL | AUC(0-t) ([2]; AUC0-1.5, cannabidiol, single 20 mg/kg oral, fasted, mean ± SD): 2.79 ± 2.14 ng·h/mL | AUC(0-t) ([2]; AUC0-1.5, cannabidiol, single 20 mg/kg oral, fed, mean ± SD): 128 ± 215 ng·h/mL | AUC(0-t) ([2]; AUC0-2, cannabidiol, single 20 mg/kg oral, fasted, mean ± SD): 4.14 ± 2.75 ng·h/mL | AUC(0-t) ([2]; AUC0-2, cannabidiol, single 20 mg/kg oral, fed, mean ± SD): 269 ± 381 ng·h/mL | AUC(0-t) ([2]; AUC0-2.5, cannabidiol, single 20 mg/kg oral, fasted, mean ± SD): 5.38 ± 4.09 ng·h/mL | AUC(0-t) ([2]; AUC0-2.5, cannabidiol, single 20 mg/kg oral, fed, mean ± SD): 424 ± 547 ng·h/mL | AUC(0-t) ([2]; AUC0-3, cannabidiol, single 20 mg/kg oral, fasted, mean ± SD): 5.88 ± 3.99 ng·h/mL | AUC(0-t) ([2]; AUC0-3, cannabidiol, single 20 mg/kg oral, fed, mean ± SD): 535 ± 675 ng·h/mL | AUC(0-t) ([2]; AUC0-4, cannabidiol, single 20 mg/kg oral, fasted, mean ± SD): 6.62 ± 3.85 ng·h/mL | AUC(0-t) ([2]; AUC0-4, cannabidiol, single 20 mg/kg oral, fed, mean ± SD): 812 ± 874 ng·h/mL | AUC(0-t) ([2]; AUC0-6, cannabidiol, single 20 mg/kg oral, fasted, mean ± SD): 12 ± 9.29 ng·h/mL | AUC(0-t) ([2]; AUC0-6, cannabidiol, single 20 mg/kg oral, fed, mean ± SD): 1090 ± 886 ng·h/mL | AUC(0-t) ([2]; AUC0-8, cannabidiol, single 20 mg/kg oral, fasted, mean ± SD): 22.9 ± 39.3 ng·h/mL | AUC(0-t) ([2]; AUC0-8, cannabidiol, single 20 mg/kg oral, fed, mean ± SD): 819 ± 590 ng·h/mL | AUC(0-t) ([2]; AUC0-12, cannabidiol, single 20 mg/kg oral, fasted, mean ± SD): 14.7 ± 10.2 ng·h/mL | AUC(0-t) ([2]; AUC0-12, cannabidiol, single 20 mg/kg oral, fed, mean ± SD): 372 ± 338 ng·h/mL | AUC(0-t) ([2]; AUC0-16, cannabidiol, single 20 mg/kg oral, fasted, mean ± SD): 9.76 ± 4.79 ng·h/mL | AUC(0-t) ([2]; AUC0-16, cannabidiol, single 20 mg/kg oral, fed, mean ± SD): 112 ± 133 ng·h/mL | AUC(0-t) ([2]; AUC0-24, cannabidiol, single 20 mg/kg oral, fasted, mean ± SD): 5.45 ± 2.76 ng·h/mL | AUC(0-t) ([2]; AUC0-24, cannabidiol, single 20 mg/kg oral, fed, mean ± SD): 34.3 ± 11.7 ng·h/mL | AUC(0-t) ([2]; AUC0-36, cannabidiol, single 20 mg/kg oral, fasted, mean ± SD): 5 ± 3.78 ng·h/mL | AUC(0-t) ([2]; AUC0-36, cannabidiol, single 20 mg/kg oral, fed, mean ± SD): 20.7 ± 5.11 ng·h/mL | AUC(0-t) ([2]; AUC0-48, cannabidiol, single 20 mg/kg oral, fasted, mean ± SD): 2.66 ± 2.4 ng·h/mL | AUC(0-t) ([2]; AUC0-48, cannabidiol, single 20 mg/kg oral, fed, mean ± SD): 15.5 ± 4.31 ng·h/mL | AUC(0-t) ([2]; AUC0-72, cannabidiol, single 20 mg/kg oral, fasted, mean ± SD): 1.73 ± 1.89 ng·h/mL | AUC(0-t) ([2]; AUC0-72, cannabidiol, single 20 mg/kg oral, fed, mean ± SD): 10.1 ± 3.42 ng·h/mL | AUC(0-t) ([2]; AUC0-96, cannabidiol, single 20 mg/kg oral, fasted, mean ± SD): 1.35 ± 1.73 ng·h/mL | AUC(0-t) ([2]; AUC0-96, cannabidiol, single 20 mg/kg oral, fed, mean ± SD): 7.86 ± 2.44 ng·h/mL | AUC(0-t) ([2]; AUC0-120, cannabidiol, single 20 mg/kg oral, fasted, mean ± SD): 0.867 ± 1.34 ng·h/mL | AUC(0-t) ([2]; AUC0-120, cannabidiol, single 20 mg/kg oral, fed, mean ± SD): 6.36 ± 2.24 ng·h/mL | AUC(0-inf) ([2]; AUC0-inf, cannabidiol, single 20 mg/kg oral dose of cannabidiol solution, fasted, mean): 360 ng·h/mL | AUC(0-inf) ([2]; AUC0-inf, cannabidiol, single 20 mg/kg oral dose of cannabidiol solution, fed, mean): 10100 ng·h/mL | AUC(0-t) ([2]; AUC0-t, cannabidiol, single 20 mg/kg oral dose of cannabidiol solution, fasted, mean): 466 ng·h/mL | AUC(0-t) ([2]; AUC0-t, cannabidiol, single 20 mg/kg oral dose of cannabidiol solution, fed, mean): 9650 ng·h/mL | Cmax ([2]; Cmax, cannabidiol, single 20 mg/kg oral dose of cannabidiol solution, fasted, mean): 27.3 ng/mL | Cmax ([2]; Cmax, cannabidiol, single 20 mg/kg oral dose of cannabidiol solution, fed, mean): 1560 ng/mL | Tmax ([2]; cannabidiol, single 20 mg/kg oral dose of cannabidiol solution, fasted): 12 h | Tmax ([2]; cannabidiol, single 20 mg/kg oral dose of cannabidiol solution, fed): 6 h | AUC(0-inf) ([2]; ln(AUC0-inf) Geometric Mean, cannabidiol, 20 mg/kg oral, Fasted, least squares geometric mean, period removed from model): 326 ng·h/mL | AUC(0-inf) ([2]; ln(AUC0-inf) Geometric Mean, cannabidiol, 20 mg/kg oral, Fed, least squares geometric mean, period removed from model): 9580 ng·h/mL | AUC(0-t) ([2]; ln(AUC0-t) Geometric Mean, cannabidiol, 20 mg/kg oral, Fasted, least squares geometric mean): 669 ng·h/mL | AUC(0-t) ([2]; ln(AUC0-t) Geometric Mean, cannabidiol, 20 mg/kg oral, Fed, least squares geometric mean): 9210 ng·h/mL | Cmax ([2]; ln(Cmax) Geometric Mean, cannabidiol, 20 mg/kg oral, Fasted, least squares geometric mean): 44.5 ng/mL | Cmax ([2]; ln(Cmax) Geometric Mean, cannabidiol, 20 mg/kg oral, Fed, least squares geometric mean): 1390 ng/mL

From patent US11911361B2, “Stable cannabinoid formulations” (priority 2014, dated 2024)
